Data from patent US11787762B2, “Tetralin and tetrahydroquinoline compounds as inhibitors of HIF-2alpha” (ARCUS BIOSCIENCES, INC., priority 2020, dated 2023).
pIC50: −log10 of the molar value.

Target: T1, HIF-2α (Homo sapiens, UniProt Q99814)
T1 construct: host or cells: 786-O cells stably transduced with Cignal Lenti HIF Luc Reporter (only the reporter was introduced, not HIF-2α)
Assay: HIF-2α luciferase reporter assay in HIF-Luc-786-O cells
Assay type: cell-based
Experimental: Generation of HIF-2α Luciferase 786-O Cell Line:
Stable cell lines were generated by transducing 786-O cells (ATCC, CRL-1932) with Cignal Lenti HIF Luc Reporter lentivirus (CLS-007 L, Qiagen) according to the manufacturer's guidelines. In brief, 0.3×10^6 786-0 cells were transduced with lentivirus at a Multiplicity of Infection (MOI) of 25 for 24 hours. After transduction, cells were replenished with fresh RPMI 1640 Medium (Cat. No. 11875085, Thermo Fisher,) supplemented with 10% FBS (Cat. No. A3160502, Gibco), 2 mM GlutaMax (Cat. No. 35050-061, Invitrogen) and 100 units of penicillin and 100 μg of streptomycin/mL (Cat. No 15070063, Thermo Fisher) for another 24 hours. Antibiotic selection was performed in cell media containing 4 μg/mL of Puromycin. After 7 days of antibiotic selection, stable pools of surviving cells were expanded and used in a luciferase reporter assay.
HIF-2α Luciferase Reporter Assay:
On day one, 20 uL of HIF-Luc-786-0 cells in OptiMem (Cat. No. 31985088, Thermo Fisher) were seeded into each well of a 384 well white opaque plate (Corning 3570) and incubated at 37° C. and 5% CO2. Twenty microliters of 2× test compounds in OptiMem were added to cells after 4 hours of incubation. Final assay conditions comprised 20,000 cells per well in 1% DMSO with test compound concentrations ranging from 50 uM to 0 uM. After 20 hours incubation at 37° C. and 5% CO2, luciferase activity was determined using ONE-Glo Luciferase Assay Reagent (E6110, Promega) following the manufacture's recommended procedure. Briefly, 40 uL of ONE-Glo luciferase reagents were added to each well and luciferase signals were measured using an Envision 2102 Multilabel Reader. Percentage maximum activity in each test well was calculated based on DMSO (maximum activity) and no cell control wells (baseline activity). The IC50 values of the test compounds were determined from compound dose response curves fitted using a standard four parameter fit equation.

T1 sequence (Q99814 whole entry): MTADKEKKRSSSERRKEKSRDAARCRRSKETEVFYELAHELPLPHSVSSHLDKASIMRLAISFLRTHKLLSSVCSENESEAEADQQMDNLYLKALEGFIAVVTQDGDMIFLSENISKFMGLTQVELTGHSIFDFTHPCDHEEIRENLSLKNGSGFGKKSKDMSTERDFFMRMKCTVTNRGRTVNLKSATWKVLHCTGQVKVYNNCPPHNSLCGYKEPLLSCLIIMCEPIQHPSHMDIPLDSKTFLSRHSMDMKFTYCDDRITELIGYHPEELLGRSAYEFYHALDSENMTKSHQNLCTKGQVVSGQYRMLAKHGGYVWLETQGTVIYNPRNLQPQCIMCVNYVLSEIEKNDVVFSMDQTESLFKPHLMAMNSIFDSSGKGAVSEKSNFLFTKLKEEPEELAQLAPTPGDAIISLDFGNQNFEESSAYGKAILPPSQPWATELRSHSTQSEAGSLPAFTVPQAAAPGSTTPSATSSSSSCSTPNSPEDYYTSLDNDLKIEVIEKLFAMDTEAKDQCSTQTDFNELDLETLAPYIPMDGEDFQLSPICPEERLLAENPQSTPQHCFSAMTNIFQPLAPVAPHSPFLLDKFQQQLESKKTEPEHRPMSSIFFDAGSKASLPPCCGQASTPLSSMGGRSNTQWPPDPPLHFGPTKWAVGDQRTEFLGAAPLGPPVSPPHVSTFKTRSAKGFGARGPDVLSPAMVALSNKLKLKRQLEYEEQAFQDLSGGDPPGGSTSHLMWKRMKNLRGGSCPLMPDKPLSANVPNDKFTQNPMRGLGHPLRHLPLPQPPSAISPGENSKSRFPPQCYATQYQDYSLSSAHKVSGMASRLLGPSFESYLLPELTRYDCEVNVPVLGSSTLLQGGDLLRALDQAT

pIC50 (Table 3, 20 hours incubation) | pIC50 (Table 1, 20 hours incubation) | Structure (SMILES)
> 7.00 |  | N#Cc1cc(F)cc2c1[C@@H](c1ccc(Cl)c3c1C[C@@H](F)[C@H]3O)CC[C@@H]2F [Example 222, (5S,8R)-8-[(1S,2R)-7-chloro-2-fluoro-1-hydroxy-2,3-dihydro-1H-inden-4-yl]-3,5-difluoro-5,6,7,8-tetrahydronaphthalene-1-carbonitrile]
> 7.00 |  | Cc1ccccc1-c1ccc([C@H]2CC[C@H](F)c3cc(F)cc(C#N)c32)c2c1[C@H](O)C(F)(F)C2 [Example 144, (5S,8R)-8-[(1S)-2,2-difluoro-1-hydroxy-7-(2-methylphenyl)-2,3-dihydro-1H-inden-4-yl]-3,5-difluoro-5,6,7,8-tetrahydronaphthalene-1-carbonitrile]
> 7.00 |  | Cn1c(-c2ccc([C@H]3CC[C@H](F)c4cc(F)cc(C#N)c43)c3c2[C@H](O)C(F)(F)C3)cccc1=O [Example 171, (5S,8R)-8-[(1S)-2,2-difluoro-1-hydroxy-7-(1-methyl-6-oxopyridin-2-yl)-1,3-dihydroinden-4-yl]-3,5-difluoro-5,6,7,8-tetrahydronaphthalene-1-carbonitrile]
> 7.00 |  | Cc1c(C#N)cccc1-c1ccc([C@H]2CC[C@H](F)c3cc(F)cc(C#N)c32)c2c1[C@H](O)C(F)(F)C2 [Example 155, (5S,8R)-8-[(1S)-7-(3-cyano-2-methylphenyl)-2,2-difluoro-1-hydroxy-1,3-dihydroinden-4-yl]-3,5-difluoro-5,6,7,8-tetrahydronaphthalene-1-carbonitrile]
> 7.00 |  | N#Cc1cc(F)cc2c1[C@@H](c1ccc(-c3scnc3CO)c3c1CC(F)(F)[C@H]3O)CC[C@@H]2F [Example 191, (5S,8R)-8-[(1S)-2,2-difluoro-1-hydroxy-7-[4-(hydroxymethyl)-1,3-thiazol-5-yl]-1,3-dihydroinden-4-yl]-3,5-difluoro-5,6,7,8-tetrahydronaphthalene-1-carbonitrile]
6.00 to 7.00 |  | Cc1[nH]c(=O)ccc1-c1ccc([C@H]2CC[C@H](F)c3cc(F)cc(C#N)c32)c2c1[C@H](O)C(F)(F)C2 [Example 161, (5S,8R)-8-[(1S)-2,2-difluoro-1-hydroxy-7-(2-methyl-6-oxo-1H-pyridin-3-yl)-1,3-dihydroinden-4-yl]-3,5-difluoro-5,6,7,8-tetrahydronaphthalene-1-carbonitrile]
 | < 6.00 | O=[N+]([O-])c1cc(S(=O)(=O)C(F)(F)F)ccc1N1CCOc2ccc(Cl)cc21 [Example 82]
6.00 to 7.00 |  | N#Cc1cc(F)cc2c1[C@@H](c1ccc(-c3cccc4scnc34)c3c1CC(F)(F)[C@H]3O)CC[C@@H]2F [Example 190, (5S,8R)-8-[(1S)-7-(1,3-benzothiazol-4-yl)-2,2-difluoro-1-hydroxy-1,3-dihydroinden-4-yl]-3,5-difluoro-5,6,7,8-tetrahydronaphthalene-1-carbonitrile]
6.00 to 7.00 |  | Cc1ncccc1-c1ncc([C@H]2CC[C@H](F)c3cc(F)cc(C#N)c32)c2c1[C@H](O)[C@H](F)C2 [Example 227, (5S,8S)-3,5-difluoro-8-[(6R,7S)-6-fluoro-7-hydroxy-1-(2-methylpyridin-3-yl)-5H16H17H-cyclopenta[c]pyridin-4-yl]-5,6,7,8-tetrahydronaphthalene-1-carbonitrile]
> 7.00 |  | Cc1ncc(-c2ccc([C@H]3CC[C@H](F)c4cc(F)cc(C#N)c43)c3c2[C@H](O)C(F)(F)C3)n1C [Example 236, (5S,8R)-8-[(1S)-7-(2,3-dimethylimidazol-4-yl)-2,2-difluoro-1-hydroxy-1,3-dihydroinden-4-yl]-3,5-difluoro-5,6,7,8-tetrahydronaphthalene-1-carbonitrile]
6.00 to 7.00 |  | CS(=O)(=O)c1ccc([C@H]2CC[C@H](F)c3cc(F)cc(C#N)c32)c2c1[C@H](O)[C@](F)(C#N)C2 [Example 248, (5S,8R)-8-[(1S,2R)-2-cyano-2-fluoro-1-hydroxy-7-methylsulfonyl-1,3-dihydroinden-4-yl]-3,5-difluoro-5,6,7,8-tetrahydronaphthalene-1-carbonitrile]
> 7.00 |  | N#Cc1cc(F)cc2c1[C@@H](c1ccc(-c3nccnc3N)c3c1CC(F)(F)[C@H]3O)CC[C@@H]2F [Example 186, (5S,8R)-8-[(1S)-7-(3-aminopyrazin-2-yl)-2,2-difluoro-1-hydroxy-1,3-dihydroinden-4-yl]-3,5-difluoro-5,6,7,8-tetrahydronaphthalene-1-carbonitrile]
> 7.00 |  | N#Cc1cc(F)cc2c1[C@@H](c1ccc(-c3cnc4cnccn34)c3c1CC(F)(F)[C@H]3O)CC[C@@H]2F [Example 234, (5S,8R)-8-[(1S)-2,2-difluoro-1-hydroxy-7-imidazo[1,2-a]pyrazin-3-yl-1,3-dihydroinden-4-yl]-3,5-difluoro-5,6,7,8-tetrahydronaphthalene-1-carbonitrile]
> 7.00 |  | Cn1nncc1-c1ccc([C@H]2C[C@H](F)[C@H](F)c3cc(F)cc(C#N)c32)c2c1[C@H](O)C(F)(F)C2 [Example 218, (5R,6S,8R)-8-[(1S)-2,2-difluoro-1-hydroxy-7-(1-methyl-1H-1,2,3-triazol-5-yl)-2,3-dihydro-1H-inden-4-yl]-3,5,6-trifluoro-5,6,7,8-tetrahydronaphthalene-1-carbonitrile]
> 7.00 |  | Cn1cncc1-c1c(F)cc([C@H]2C[C@H](F)[C@H](F)c3cc(F)cc(C#N)c32)c2c1[C@H](O)C(F)(F)C2 [Example 208, (5R,6S)-3,5,6-trifluoro-8-[(1S)-2,2,6-trifluoro-1-hydroxy-7-(1-methyl-1H-imidazol-5-yl)-2,3-dihydro-1H-inden-4-yl]-5,6,7,8-tetrahydronaphthalene-1-carbonitrile]
> 7.00 |  | N#Cc1cc(F)cc2c1[C@@H](c1ccc(-c3cc(F)ccc3N)c3c1CC(F)(F)[C@H]3O)CC[C@@H]2F [Example 235, (5S,8R)-8-[(1S)-7-(2-amino-5-fluorophenyl)-2,2-difluoro-1-hydroxy-1,3-dihydroinden-4-yl]-3,5-difluoro-5,6,7,8-tetrahydronaphthalene-1-carbonitrile]
> 7.00 |  | Cc1ccc(-c2ccc([C@H]3CC[C@H](F)c4cc(F)cc(C#N)c43)c3c2[C@H](O)C(F)(F)C3)c(N)n1 [Example 185, (5S,8R)-8-[(1S)-7-(2-amino-6-methylpyridin-3-yl)-2,2-difluoro-1-hydroxy-1,3-dihydroinden-4-yl]-3,5-difluoro-5,6,7,8-tetrahydronaphthalene-1-carbonitrile]
> 7.00 |  | Cc1nc(N)ccc1-c1c(F)cc([C@H]2CC[C@H](F)c3cc(F)cc(C#N)c32)c2c1[C@H](O)C(F)(F)C2 [Example 203, (5S,8R)-8-[(1S)-7-(6-amino-2-methylpyridin-3-yl)-2,2,6-trifluoro-1-hydroxy-1,3-dihydroinden-4-yl]-3,5-difluoro-5,6,7,8-tetrahydronaphthalene-1-carbonitrile]
6.00 to 7.00 |  | N#Cc1cc(F)cc2c1[C@@H](c1ccc(-c3ccccc3CN)c3c1CC(F)(F)[C@H]3O)CC[C@@H]2F [Example 165, (5S,8R)-8-[(1S)-7-[2-(aminomethyl)phenyl]-2,2-difluoro-1-hydroxy-2,3-dihydro-1H-inden-4-yl]-3,5-difluoro-5,6,7,8-tetrahydronaphthalene-1-carbonitrile]
> 7.00 |  | Cn1cc(-c2c(F)cc([C@H]3CC[C@H](F)c4cc(F)cc(C#N)c43)c3c2[C@H](O)C(F)(F)C3)nn1 [Example 202, (5S,8R)-3,5-Difluoro-8-[(1S)-2,2,6-trifluoro-1-hydroxy-7-(1-methyltriazol-4-yl)-1,3-dihydroinden-4-yl]-5,6,7,8-tetrahydronaphthalene-1-carbonitrile]
